# According to patent EP0596449A2, “Serotonin receptor antagonists for treating myocardial ischemia” (E.R. SQUIBB & SONS, INC., priority 1992, dated 1994):
# Marks after values point to notes of the source that are not given here.
# How the values were obtained:
# alpha, Adrenoceptors = test: Methoxamine-induced contraction in rat aortic rings (alpha1 blocking potency); conditions: 45 minute incubation; Figure 5B
# Protocol: In order to determine the alpha1 blocking potency of cinanserin, ketanserin and LY 53857, their effect on methoxamine induced aortic constriction was determined. Male Sprague-Dawley rats were sacrificed using C02. Aortic rings (3 mm in width) were cut, denuded of endothelium by gently rolling the rings on moistened filter paper, and mounted on stainless steel hooks in 20 mL muscle chambers containing oxygenated physiological salt solution (PSS) of the following composition (in mM): 118.4 NaCI, 4.7 KCI, 1.2 MgS04, 1.2 KH2P04, 1.9 CaC12, 25.0 NaHC03, 10.1 D-glucose, and 0.01 mM Na2EDTA maintained at 37 °C. The hooks were connected to Grass FT03C transducers for recording of isometric force development. The rings were stretched to 2 g preload during the equilibration period. During equilibration the rings were periodically stimulated with 24 mM KCI to determine contractility. The effectiveness of endothelial removal was confirmed by the absence of relaxation by 1 µM acetylcholine of a contraction in response to 0.01 µM phenylephrine.
# Various concentrations of the test compounds were then added to individual baths and allowed a 45 minute incubation before cumulative concentration response curves for methoxamine (1 nM-30 /1.M) were obtained. Solvent controls were run in parallel. […]
# [1] = tested on: globally ischemic rat hearts; test: Global ischemia (25 min) and reperfusion (30 min) in isolated perfused rat hearts, 5HT2 antagonists
# Protocol: To determine the effect of serotonin receptor agonists and antagonists, male Sprague-Dawley rats (450-550 g) were prepared as described below. The rats were anesthetized using 100 mg/kg sodium pentobarbital (i.p.). They were intubated and then treated with i.v. heparin (1000 U/kg). While being mechanically ventilated, their hearts were perfused in situ via retrograde cannulation of the aorta. The hearts were then excised and […] moved to a Langendorff apparatus where they were perfused with Krebs-henseleit bicarbonate buffer solution ((mM): 112 NaCI, 25 NaHC03, 5 KCI, 1.2 MgS04, 1 KH2P04, 1.25 CaC12, 2 pyruvate and 11.5 dextrose bubbled with 95% 02 - 5% C02) at a constant perfusion pressure (85 mm Hg). A water-filled latex balloon attached to a metal cannula was then inserted into the left ventricle and connected to a Statham pressure transducer for measurement of left ventricular pressure. The hearts were allowed to equilibrate for 15 min, at which time end diastolic pressure (EDP) was adjusted to 5 mm Hg and this balloon volume was maintained for the duration of the experiment. Pre-ischemia or pre-drug function, heart rate and coronary flow (extracorporeal electromagnetic flow probe) were then measured. Left ventricular developed pressure (LVDP) was calculated from the difference between left ventricular peak systolic pressure and EDP. Cardiac temperature was maintained throughout the experiment by submerging the hearts in 37 ° C buffer which was allowed to accumulate in a stoppered, heated chamber.
# The model of global ischemia in isolated rat hearts was designed such that any protective effects observed are generally due to a direct cardioprotective effect and not to effects on cornonary or peripheral vascular tone. Also, because the hearts are perfused with an oxygenated buffer solution, platelets or the normal components of an inflammatory response are probably not important mediators of the ischemic/reperfusion injury observed in this model. […] Agents which exert their protective effects either through their effects on the peripheral or coronary vasculature such as nitrates or agents which act on blood or act on some component of the inflammatory response such as thromboxane A2 receptor antagonists are generally ineffective in this model.
# The hearts were divided into the following groups: 1. Vehicle (0.1% DMSO) treatment beginning 10 minutes before the onset of ischemia (n = 8). 2. 0.3-10 µM ketanserin treatment beginning 10 minutes before the onset of ischemia (n = 4-5 per group). 3. 10 µM ketanserin given only during reperfusion (n = 4). 4. 0.1-10 µM cinanserin treatment beginning 10 minutes before global ischemia (n = 4-10). 5. 1-10 µM LY 53857 treatment beginning 10 minutes before the onset of ischemia (n = 4 per group). After 10 minutes of vehicle or drug pretreatment, the hearts were subjected to 25 minutes of total global ischemia which was initiated by shutting off the perfusate flow. Reperfusion was begun (without drug except in the case of group 3 above) and allowed to continue for 30 minutes. At this time, final measurements of EDP, LVDP and coronary flow were obtained. Cumulative LDH relase was measured in the reperfusate and was used as the index of cellular and membrane viability. In all hearts, the time to contracture during ischemia was measured and used as an index of cardioprotection during ischemia. Time to contracture is defined as the time (minutes) necessary for the first 5 mm Hg increase in EDP to occur during global ischemia. The data were expressed as the percent change in time to contracture from vehicle.
# [2] = 0.3 µM, 30 Min Post-Reperfusion
# [3] = 0.3 µM, Pre-Ischemia, Post-Drug
# [4] = 3 µM (Reper), given only during reperfusion, 30 Min Post-Reperfusion
# [5] = 3 µM (Reper), given only during reperfusion, Pre-Ischemia, Post-Drug
# [6] = 3 µM (Reper), given only during reperfusion, Pre-Ischemia, Pre-Drug
smiles,measurement,setting,value
"O=C(c1ccc(F)cc1)C1CCN(CCn2c(=O)[nH]c3ccccc3c2=O)CC1 [Ketanserin, ketanserin]",concentration from which the shift of the methoxamine-tension curve was significant,"alpha, Adrenoceptors",0.3 µM
same,Coronary Flow,[1]; [2],13±2^a mL/min/g
same,HR,[1]; [2],266±18^a beats/min
same,LVDP,[1]; [2],20±5^a mmHg
same,Coronary Flow,[1]; [3],16 ± 2 mL/min/g
same,HR,[1]; [3],275±6 beats/min
same,LVDP,[1]; [3],141±10 mmHg
same,Coronary Flow,"[1]; 0.3 µM, Pre-Ischemia, Pre-Drug",20 ± 2 mL/min/g
same,HR,"[1]; 0.3 µM, Pre-Ischemia, Pre-Drug",291±2 beats/min
same,LVDP,"[1]; 0.3 µM, Pre-Ischemia, Pre-Drug",146±5 mmHg
same,Coronary Flow,"[1]; 1 µM, 30 Min Post-Reperfusion",10±1^a mL/min/g
same,HR,"[1]; 1 µM, 30 Min Post-Reperfusion",243±35^a beats/min
same,LVDP,"[1]; 1 µM, 30 Min Post-Reperfusion",29±5^a mmHg
same,Coronary Flow,"[1]; 1 µM, Pre-Ischemia, Post-Drug",15 ± 1 mL/min/g
same,HR,"[1]; 1 µM, Pre-Ischemia, Post-Drug",272±11 beats/min
same,LVDP,"[1]; 1 µM, Pre-Ischemia, Post-Drug",128±4 mmHg
same,Coronary Flow,"[1]; 1 µM, Pre-Ischemia, Pre-Drug",19 ± 1 mL/min/g
same,HR,"[1]; 1 µM, Pre-Ischemia, Pre-Drug",311±16 beats/min
same,LVDP,"[1]; 1 µM, Pre-Ischemia, Pre-Drug",130±6 mmHg
same,Coronary Flow,[1]; [4],14±1^a mL/min/g
same,HR,[1]; [4],"196±14^a,b beats/min"
same,LVDP,[1]; [4],33±6^a mmHg
same,Coronary Flow,[1]; [5],17 ± 2 mL/min/g
same,HR,[1]; [5],285±11 beats/min
same,LVDP,[1]; [5],130±5 mmHg
same,Coronary Flow,[1]; [6],19 ± 1 mL/min/g
same,HR,[1]; [6],292±15 beats/min
same,LVDP,[1]; [6],134±4 mmHg
same,Coronary Flow,"[1]; 3 µM, 30 Min Post-Reperfusion",13±1^a mL/min/g
same,HR,"[1]; 3 µM, 30 Min Post-Reperfusion",246±22^a beats/min
same,LVDP,"[1]; 3 µM, 30 Min Post-Reperfusion","53±7^a,b mmHg"
same,Coronary Flow,"[1]; 3 µM, Pre-Ischemia, Post-Drug",15 ± 1 mL/min/g
same,HR,"[1]; 3 µM, Pre-Ischemia, Post-Drug",244±16^a beats/min
same,LVDP,"[1]; 3 µM, Pre-Ischemia, Post-Drug",127±9 mmHg
same,Coronary Flow,"[1]; 3 µM, Pre-Ischemia, Pre-Drug",19 ± 1 mL/min/g
same,HR,"[1]; 3 µM, Pre-Ischemia, Pre-Drug",310±13 beats/min
same,LVDP,"[1]; 3 µM, Pre-Ischemia, Pre-Drug",128±8 mmHg
same,Coronary Flow,"[1]; 10 µM, 30 Min Post-Reperfusion",13±2^a mL/min/g
same,HR,"[1]; 10 µM, 30 Min Post-Reperfusion",220±22^a beats/min
same,LVDP,"[1]; 10 µM, 30 Min Post-Reperfusion","66±4^a,b mmHg"
same,Coronary Flow,"[1]; 10 µM, Pre-Ischemia, Post-Drug",14 ± 2 mL/min/g
same,HR,"[1]; 10 µM, Pre-Ischemia, Post-Drug","196±19^a,b beats/min"
same,LVDP,"[1]; 10 µM, Pre-Ischemia, Post-Drug",128±5 mmHg
same,Coronary Flow,"[1]; 10 µM, Pre-Ischemia, Pre-Drug",19 ± 1 mL/min/g
same,HR,"[1]; 10 µM, Pre-Ischemia, Pre-Drug",290±6 beats/min
same,LVDP,"[1]; 10 µM, Pre-Ischemia, Pre-Drug",135±5 mmHg
same,EC25,"[1]; Rattus norvegicus, drug given 10 minutes before global ischemia, read-out: EC25 (concentration which increased the time to contracture 25% above vehicle group values)",5.5 µM
same,cumulative LDH release during reperfusion,[1]; given only during reperfusion (Reper),did not cause a reduction in LDH release
same,protective effect for any variable measured,[1]; given only during reperfusion at 3 µM,no protective effect
same,reperfusion LDH release,"[1]; only at the 10 µM concentration, Figure 2B",significantly reduced LDH relase
